Results: patent US20260294946A1, “METHOD TO REDUCE FEED CONVERSION RATIO IN A FARMED ANIMAL” (Inbiose N.V., priority 2023, published 2026)

How the values were obtained:
[1] = Trial in calves: live weight, average daily gain, feed intake, feed conversion ratio (12 weeks); format: in vivo, Holstein Friesian calves
From the text: (§1) Holstein Friesian calves (2- to 3-week-old, 95% male) were transported from different farms to the experimental facility of Denkavit (Voorthuizen, The Netherlands) where the animals were reared. The calves were randomly and gender-equally divided in four groups based on experimental calf milk replacer (CMR): group A (placebo—standard CMR powder of the farm), group B (standard CMR powder supplemented with 0.005% dry wt. 2′FL), group C (standard CMR powder supplemented with 0.025% dry wt. 3′SL and 0.015% w/w 6′SL) and group D (standard CMR powder supplemented with 0.005% dry wt. 2′FL, 0.025% dry wt. 3′SL and 0.015% dry wt. 6′SL). The calf milk replacer was administered as a liquid to the calves (water was added to the CMR powder to obtain 150 grams CMR powder per liter liquid CMR). Each group involved 100 calves, assigned into four rows (25 calves per row) of two compartment blocks. Each row contained five pens, where four to six calves were living in one pen.
Starting from the day of arrival, calves received standard calf milk replacer (CMR) during a period of 9 weeks. Group A only received the CMR, while the CMR supplied to groups B, C and D was supplemented with MMOs as outlined in the section titled “Animals.” Calf starter (concentrates) and straw were introduced gradually from day 6 till the end of the experiment (12 weeks) while calves had access to corn silage at week 11 and 12. Feeds were provided ad libitum to calves twice a day in the morning and evening and were daily recorded based on rows (concentrates, straw, corn silage) or groups (CMR) consumption.
Calves were followed up by the farm staff since arrival until 12 weeks. Fecal consistency in scale 1-4 (Larson et al., 1977, J. Dairy Science, 60(6): p. 989-991) was recorded daily for the first ten days since arrival. Number of mortalities and signs of adverse effects were registered daily. The animals were treated prophylactically or metaphylactically (herd treatment) with 1 g oxytetracycline 100% (at day 4), 0.5 g Doxylin 50% WSP and 0.8 g Bromhexine 2% (at day 13), and 3.1 ml Tilmicosol 250 mg/ml (at day 24) to prevent and/or treat acute lung inflammation. Individual treatments were followed by remarks of the farm staff and diagnostics of farm veterinary practitioners. Disease incidences and medicinal usage based on individual treatments were recorded to compare between treatment groups. The incidence of diarrhea was 0% in all groups at the start of the study, and 1% (%; group A), 0% (group B), 1% (group C) and 2% (group D) after 12 weeks. Live weight of the animals was monitored at arrival (d1), two weeks (W2), six weeks (W6), ten weeks (W10) and 12 weeks (W12) since arrival. Feed conversion ratio (FCR) of each period was computed based on the input of daily weight gain and daily feed intake.
Prior to analysis, the data of live weight and FCR were checked for outliers. A data point was considered an outlier if it could reasonably be expected that observed trail results were due to other factors than the treatment, e.g., due to sickness. An ANCOVA model as below was used to analyze the live weight data (R version 4.1.2.).
Differences among means with P<0.05 were accepted as significant. Differences among means with 0.05<P<0.10 were accepted as tendency. Multiple comparisons were done with Tukey.
Other performance data were analyzed using a mixed linear model using treatments as fixed and Row as random term using 1me in the nlme package.

[2] = Trial in calves: health and safety observation (adverse effects, mortality, diarrhea); format: in vivo, Holstein Friesian calves; conditions: after 12 weeks
From the text: as §1, with “Each row contained five pens, where four to six calves were living in one pen.” left out
Calves were followed up by the farm staff since arrival until 12 weeks. Fecal consistency in scale 1-4 (Larson et al., 1977, J. Dairy Science, 60(6): p. 989-991) was recorded daily for the first ten days since arrival. […] Disease incidences and medicinal usage based on individual treatments were recorded to compare between treatment groups. […] Live weight of the animals was monitored at arrival (d1), two weeks (W2), six weeks (W6), ten weeks (W10) and 12 weeks (W12) since arrival. […]

[3] = tested on: Faecalibacterium prausnitzii; assay: Fecal samples of piglets, 16S rRNA sequencing; format: in vivo
Protocol: (§2) On d22, from one piglet per pen (piglet with median weight at weaning) a fresh feces sample was collected and stored at −80° C. Total fecal DNA of 16 selected piglets (1 per pen) were extracted from 200 mg feces. ZymoBIOMICS™ DNA miniprep kit (Zymo Research) in combination with a FASTPREP® 24 device was used to extract and purify the microbial DNA as instructed by the manufacturer. Purified total DNA were eluted in 100 μl and were quickly checked for the concentration and quality using Nanodrop (Implen NANOPHOTOMETER®) before storage at −20° C.
(§3) Total DNA were submitted to Eurofins (GATC, Germany) to perform 16S rRNA sequencing using their INVIEW microbiome high specificity package. Briefly, total DNA were first amplified the hyper-variable regions 16S and integrated the barcodes through PCR. The PCR products were purified, then ligated with adapter for library preparation. The sequencing was done using PacBio sequencing technology, guaranteed for 25000 reads, mean read length […].
(§4) Amplicon analysis was performed using Mothur pipeline (mothur.org). Processing of the raw sequencing data was done according to the Mothur standard operating procedure (mothur.org/wiki/MiSeq_SOP). Alignment was accomplished using DAIRYdb 16S rRNA gene database (GitHub—marcomeola/DAIRYdb). Sequences were classified and any sequences classified as Chloroplast, Mitochondria, unknown, Archaea, or Eukaryota were removed from the data set. Preclustering of the sequences and removal of chimeric sequences using a Mothur-formatted version of the Ribosomal Database Project (RDP) training set and uchime, based on the Mothur protocol. Sequences were classified into Operational Taxonomic Units (OTUs) of ≥97% sequence identity. Singleton and doubleton reads were removed.
(§5) Data statistics of 16S data and figure plotting were performed in RStudio (rstudio.com/). Microbiome data was normalized in relative abundance or cpm (counts per million). The treatment effect of 2′FL in the microbiome abundance data was evaluated on normalized relative abundance (in %) using Mann-Whitney U test.

Prevotella Sp. RS2 = assay: Fecal samples of piglets, 16S rRNA sequencing; format: in vivo
Protocol: as §2, §3, §4, §5

Lactobacillus mucosae = assay: Fecal samples of piglets, 16S rRNA sequencing; format: in vivo
Protocol: as §2, §3, §4, §5

Blautia obeum = assay: Fecal samples of piglets, 16S rRNA sequencing; format: in vivo
Protocol: as §2, §3, §4, §5

[4] = Feed conversion ratio of a farm animal (general statement); format: in vivo; conditions: administered to a farm animal

2′-fucosyllactose [2′FL]
Live weight ([1]; W 0 (arrival), mean ± SD): 45.6 ± 2.8 kg | Feed conversion ratio (FCR) ([1]; W 0-W 2): 1.34 | Average daily gain ([1]; W 0-W 2, mean ± SD): 600.1 ± 155.0 g/day | Feed conversion ratio (FCR) ([1]; W 0-W 6): 1.53 | Feed conversion ratio (FCR) ([1]; W 0-W 10): 2.01 | Feed conversion ratio (FCR) ([1]; W 0-W 12): 2.28 | Average daily gain ([1]; W 0-W 12, mean ± SD): 1099.5 ± 141.7 g/day | Live weight ([1]; W 2, mean ± SD): 54.0 ± 3.3 kg | Feed conversion ratio (FCR) ([1]; W 2-W 6): 1.67 | Average daily gain ([1]; W 2-W 6, mean ± SD): 954.9 ± 176.8 g/day | Live weight ([1]; W 6, mean ± SD): 80.7 ± 7.1 kg | Feed conversion ratio (FCR) ([1]; W 6-W 10): 2.51 | Average daily gain ([1]; W 6-W 10, mean ± SD): 1267.9 ± 202.2 g/day | Feed conversion ratio (FCR) ([1]; W 6-W 12): 2.76 | Live weight ([1]; W 10, mean ± SD): 116.2 ± 11.0 kg | Feed conversion ratio (FCR) ([1]; W 10-W 12): 3.44 | Average daily gain ([1]; W 10-W 12, mean ± SD): 1484.6 ± 260.7 g/day | Live weight ([1]; W 12, mean ± SD): 136.8 ± 12.7 kg | Average feed intake, CMR ([1]; calf milk replacer, 12 weeks trial): 42.3 kg | Average feed intake, Concentrates ([1]; concentrates, 12 weeks trial, mean ± SD): 131.6 ± 6.2 kg | Average feed intake, Corn silage ([1]; corn silage, mean ± SD): 14.8 ± 1.3 kg | Average feed intake, Straw ([1]; straw, 12 weeks trial, mean ± SD): 16.0 ± 0.8 kg | incidence of diarrhea [2]: 0% | effect on abundance ([3]; d 22): promoted | Relative abundance in fecal samples ([3]; weaning day (d 22), P=0.00965 vs control): 0.278% | effect on abundance (Prevotella Sp. RS2; d 22): inhibited | Relative abundance in fecal samples (Prevotella Sp. RS2; weaning day (d 22), P=0.0129 vs control): 0.1093% | effect on abundance (Lactobacillus mucosae; d 22): promoted | Relative abundance in fecal samples (Lactobacillus mucosae; weaning day (d 22), P=0.0263 vs control): 0.1586% | effect on abundance (Blautia obeum; d 22): promoted | Relative abundance in fecal samples (Blautia obeum; weaning day (d 22), P=0.0428 vs control): 0.1672% | decrease of the feed conversion ratio [4]: strong decrease
